{"source": "paper PMC10937238", "about": "(Saudi Pharmaceutical Journal : SPJ, 2024)", "key": {"MERS-CoV PLpro [1]": {"target": "T1, MERS-CoV PLpro (Human betacoronavirus 2c EMC/2012, UniProt K0BWD0)", "format": "binding"}, "MERS-CoV PLpro [2]": {"target": "T1, MERS-CoV PLpro", "experiment": "biochemical", "format": "binding", "conditions": "read-out: SA (111.5 μM)"}, "MERS-CoV PLpro [3]": {"target": "T1, MERS-CoV PLpro", "experiment": "biochemical"}}, "note": "pIC50: −log10 of the molar value.", "data": [{"smiles": "COc1ccc2c(c1)c(CC(=O)O)c(C)n2C(=O)c1ccc(Cl)cc1", "note": "[Indomethacin]", "values": [{"measurement": "Indomethacin (279.5 μM)", "setting": "MERS-CoV PLpro [1]", "result": 1.44, "unit": "°C"}]}, {"smiles": "COc1cc(/C=C/C(=O)O)cc(OC)c1O", "note": "[sinapic acid]", "values": [{"measurement": "ΔTm at 111.5 µM", "setting": "MERS-CoV PLpro [2]", "result": 18.4, "unit": "°C"}, {"measurement": "pIC50", "setting": "MERS-CoV PLpro [3]", "result": 4.16}]}]}
